Laboratory results taken from patent publication US9579347B2, “Methods for enhancing the effect of EGCg on mitigating skeletal muscle loss” (ABBOTT LABORATORIES, priority 2012, dated 2017).

System: serum-starved C2C12 myotubes
Assay: release of radiolabeled phenylalanine (total protein degradation) from serum-starved C2C12 myotubes
Type: cell-based, murine
Details: serum-free medium, 24 hours, vs serum (NC) and serum-free (NS) controls
Protocol: The role of EGCg alone and EGCg in combination with zinc in preventing muscle protein degradation was evaluated in an in vitro cell-based assay using serum-starved C2C12 myotubes, i.e., differentiated, elongated murine myoblasts, which are routinely used to model adult skeletal myofibers in cell culture. This assay measured the release of radiolabeled phenylalanine (Phe) from myotubes in response to a catabolic stimulus. Under normal growth conditions in the presence of growth factors supplied by 2% horse serum, the myotubes actively incorporated the amino acid Phe into newly synthesized muscle proteins. This is shown as the negative control for proteolysis (NC) in lane 1 of FIG. 1, i.e., the serum control. In the absence of the 2% horse serum, specifically C2C12 cultured in a serum-free DMEM medium, the muscle proteins began to break down, and phenylalanine was subsequently released as a free amino acid. This is shown as the serum-free, positive control for proteolysis (NS) in lane 2 of FIG. 1. […] 10 μM EGCg was added to serum-free and serum-starved myotubes alone, i.e., lane 3 of FIG. 1.
The experiment was replicated 2 times where n=6 over the same period of time for each sample, i.e., 24 hours for each sample. Results are expressed as mean±S.E.M and statistical analysis between groups was determined by one-way ANOVA followed by Tukey's test.

Row | SMILES | total protein degradation (release of radiolabeled Phe) (10 μM EGCg alone, FIG. 1 lane 3) | total protein degradation (release of radiolabeled Phe) (10 μM zinc sulfate alone, FIG. 2 lane 3)
1 | O=C(O[C@@H]1Cc2c(O)cc(O)cc2O[C@@H]1c1cc(O)c(O)c(O)c1)c1cc(O)c(O)c(O)c1 [EGCg, epigallocatechin gallate] | greater inhibition of total protein degradation | –
2 | O=S(=O)([O-])[O-].[Zn+2] [zinc, zinc sulfate] | – | promoted or increased total protein degradation
